Tests used:
rabbit [1] = conditions: Prenatal developmental toxicity study, himalayan, Oral, Gavage/Intubation, dose end: 28 GD
rat [2] = conditions: Prenatal developmental toxicity study, sprague dawley, Oral, Gavage/Intubation, dose end: 20 GD
rat [3] = conditions: Multigenerational reproductive toxicity study, sprague dawley, Oral, Feed, dose end: 2 generation
rat [4] = conditions: Multigenerational reproductive toxicity study, sprague dawley, Oral, Feed, dose end: 2 generation, systemic / hematology / erythrocyte (rbc) count differential / erythrocyte (rbc) + systemic / hematology / hematocrit (hct) / hematocrit (…
rabbit [5] = conditions: Prenatal developmental toxicity study, new zealand white, Oral, Water, dose end: 19 GD
rabbit [6] = conditions: Prenatal developmental toxicity study, himalayan, Oral, Gavage/Intubation, dose end: 28 GD; remark: listed apart in the source
rat [7] = conditions: Prenatal developmental toxicity study, wistar, Oral, Gavage/Intubation, dose end: 19 GD
rat [8] = conditions: Multigenerational reproductive toxicity study, wistar, Oral, Feed, dose end: 2 generation
rat [9] = conditions: Subchronic oral toxicity in rodents, sprague dawley, Gavage/Intubation, dose end: 19 GD
[10] = group: developmental, developmental / developmental malformation / general / crown-rump length + systemic / in life observation / body weight / fetal weight
[11] = group: maternal, reproductive / reproductive performance / premature delivery / premature delivery + systemic / in life observation / body weight / body …
[12] = group: developmental, developmental / developmental malformation / bone / [other] + developmental / developmental malformation / bone / delayed ossification + …
[13] = group: maternal, systemic / in life observation / body weight / body weight gain
[14] = group: offspring, systemic / in life observation / body weight / offspring (pup) weight + systemic / in life observation / body weight / offspring (pup) …
[15] = group: parental, systemic / organ weight / kidney / absolute + systemic / organ weight / kidney / relative to body weight + systemic / pathology microscopic…
[16] = group: developmental, developmental / developmental malformation / other / other + systemic / in life observation / body weight / fetal weight
[17] = group: maternal, systemic / in life observation / clinical signs / defecation + systemic / in life observation / food consumption / food consumption + …
[18] = group: developmental, developmental / developmental malformation / liver / [other]
[19] = group: maternal, reproductive / reproductive performance / aborted / aborted + systemic / in life observation / body weight / body weight gain + systemic / …
[20] = group: developmental, developmental / developmental malformation / aortic arch / narrowed + developmental / developmental malformation / bone / [other] + …
[21] = group: developmental, developmental / developmental malformation / bone / incomplete ossification + developmental / developmental malformation / bone / wavy + …
[22] = group: maternal, systemic / in life observation / body weight / body weight + systemic / in life observation / body weight / body weight gain + systemic / in…
[23] = group: parental, systemic / in life observation / body weight / body weight gain
[24] = group: developmental, developmental / developmental malformation / bone / ossification sites + developmental / developmental malformation / bone / supernumerary
[25] = group: systemic, systemic / in life observation / body weight / body weight + systemic / in life observation / body weight / body weight gain + systemic / in…

Question: For `O=C(NCc1ncc(C(F)(F)F)cc1Cl)c1c(Cl)cccc1Cl` [Fluopicolide], which LEL (rabbit [1]; [10]) is on record?
Answer: 60 mg/kg/day

Question: What about the LOAEL (rabbit [1]; [10]) of the same compound?
Answer: 60 mg/kg/day

Question: And the NEL (rabbit [1]; [10])?
Answer: 20 mg/kg/day

Question: And the NOAEL (rabbit [1]; [10])?
Answer: 20 mg/kg/day

Question: What about the LEL (rabbit [1]; [11]) of the same compound?
Answer: 60 mg/kg/day

Question: What about the LOAEL (rabbit [1]; [11]) of the same compound?
Answer: 60 mg/kg/day

Question: And the NEL (rabbit [1]; [11])?
Answer: 20 mg/kg/day

Question: And the NOAEL (rabbit [1]; [11])?
Answer: 20 mg/kg/day

Question: What about the LEL (rat [2]; [12]) of the same compound?
Answer: 700 mg/kg/day

Question: And the LOAEL (rat [2]; [12])?
Answer: 700 mg/kg/day

Question: And the NEL (rat [2]; [12])?
Answer: 60 mg/kg/day

Question: And the NOAEL (rat [2]; [12])?
Answer: 60 mg/kg/day

Question: And the LEL (rat [2]; [13])?
Answer: 700 mg/kg/day

Question: What about the LOAEL (rat [2]; [13]) of the same compound?
Answer: 700 mg/kg/day

Question: And the NEL (rat [2]; [13])?
Answer: 60 mg/kg/day

Question: And the NOAEL (rat [2]; [13])?
Answer: 60 mg/kg/day

Question: What about the LEL (rat [3]; [14]) of the same compound?
Answer: 180 mg/kg/day

Question: And the LOAEL (rat [3]; [14])?
Answer: 180 mg/kg/day

Question: What about the NEL (rat [3]; [14]) of the same compound?
Answer: 43.7 mg/kg/day

Question: And the NOAEL (rat [3]; [14])?
Answer: 43.7 mg/kg/day

Question: What about the LEL (rat [3]; [15]) of the same compound?
Answer: 145 mg/kg/day

Question: And the LOAEL (rat [3]; [15])?
Answer: 145 mg/kg/day

Question: And the NEL (rat [3]; [15])?
Answer: 36.4 mg/kg/day

Question: What about the NOAEL (rat [3]; [15]) of the same compound?
Answer: 36.4 mg/kg/day

Question: Which results are given for `O=C(Nc1ccc(F)cc1)c1cccc(Oc2cccc(C(F)(F)F)c2)n1` [Picolinafen]?
Answer: LEL (rat [4]; group: offspring): 21 mg/kg/day; LOAEL (rat [4]; group: offspring): > 43 mg/kg/day; NEL (rat [4]; group: offspring): 4.3 mg/kg/day; NOAEL (rat [4]; group: offspring): ≥ 43 mg/kg/day; LEL (rat [4]; group: parental): 19 mg/kg/day; LOAEL (rat [4]; group: parental): 19 mg/kg/day; NEL (rat [4]; group: parental): 3.7 mg/kg/day; NOAEL (rat [4]; group: parental): 3.7 mg/kg/day

Question: For `[Na+].[O-][Cl+][O-]` [Sodium chlorite], which LEL (rabbit [5]; [16]) is on record?
Answer: 35.5 mg/kg/day

Question: And the LOAEL (rabbit [5]; [16])?
Answer: 35.5 mg/kg/day

Question: What about the NEL (rabbit [5]; [16]) of the same compound?
Answer: 13 mg/kg/day

Question: What about the NOAEL (rabbit [5]; [16]) of the same compound?
Answer: 13 mg/kg/day

Question: And the LEL (rabbit [5]; [17])?
Answer: 35.5 mg/kg/day

Question: What about the LOAEL (rabbit [5]; [17]) of the same compound?
Answer: 35.5 mg/kg/day

Question: What about the NEL (rabbit [5]; [17]) of the same compound?
Answer: 13 mg/kg/day

Question: What about the NOAEL (rabbit [5]; [17]) of the same compound?
Answer: 13 mg/kg/day

Question: With `CCOC(=O)OC1=C(c2cc(C)ccc2C)C(=O)NC12CCC(OC)CC2` (configuration not stated) [Spirotetramat] as the compound, how does the LEL (rabbit [6]; [18]) read?
Answer: 160 mg/kg/day

Question: What about the LOAEL (rabbit [6]; [18]) of the same compound?
Answer: > 160 mg/kg/day

Question: What about the NEL (rabbit [6]; [18]) of the same compound?
Answer: 40 mg/kg/day

Question: And the NOAEL (rabbit [6]; [18])?
Answer: ≥ 160 mg/kg/day

Question: What about the LEL (rabbit [6]; [19]) of the same compound?
Answer: 40 mg/kg/day

Question: What about the LOAEL (rabbit [6]; [19]) of the same compound?
Answer: 40 mg/kg/day

Question: And the NEL (rabbit [6]; [19])?
Answer: 10 mg/kg/day

Question: What about the NOAEL (rabbit [6]; [19]) of the same compound?
Answer: 10 mg/kg/day

Question: And the LOAEL (rat [7]; [20])?
Answer: 1000 mg/kg/day

Question: What about the NOAEL (rat [7]; [20]) of the same compound?
Answer: 140 mg/kg/day

Question: And the LEL (rat [7]; [21])?
Answer: 20 mg/kg/day

Question: What about the NEL (rat [7]; [21]) of the same compound?
Answer: < 20 mg/kg/day

Question: And the LEL (rat [7]; group: maternal, systemic / in life observation / body weight / body weight)?
Answer: 140 mg/kg/day

Question: What about the LOAEL (rat [7]; [22]) of the same compound?
Answer: 1000 mg/kg/day

Question: And the NEL (rat [7]; [22])?
Answer: 20 mg/kg/day

Question: What about the NOAEL (rat [7]; [22]) of the same compound?
Answer: 140 mg/kg/day

Question: What about the LOAEL (rat [8]; [14]) of the same compound?
Answer: 487 mg/kg/day

Question: What about the NEL (rat [8]; [14]) of the same compound?
Answer: 19.3 mg/kg/day

Question: And the NOAEL (rat [8]; [14])?
Answer: 79.5 mg/kg/day

Question: And the LEL (rat [8]; group: offspring, systemic / in life observation / body weight / offspring (pup) weight gain)?
Answer: 79.5 mg/kg/day

Question: And the LEL (rat [8]; [23])?
Answer: 419 mg/kg/day

Question: And the LOAEL (rat [8]; [23])?
Answer: 419 mg/kg/day

Question: And the NEL (rat [8]; [23])?
Answer: 70.7 mg/kg/day

Question: What about the NOAEL (rat [8]; [23]) of the same compound?
Answer: 70.7 mg/kg/day

Question: `CC(=O)OC(C)(C)C` [tert-Butyl acetate] was tested. Which LEL (rat [9]; [24]) did it give?
Answer: 800 mg/kg/day

Question: What about the LOAEL (rat [9]; [24]) of the same compound?
Answer: > 1600 mg/kg/day

Question: What about the NEL (rat [9]; [24]) of the same compound?
Answer: 400 mg/kg/day

Question: And the NOAEL (rat [9]; [24])?
Answer: ≥ 1600 mg/kg/day

Question: And the LEL (rat [9]; [25])?
Answer: 1600 mg/kg/day

Question: What about the LOAEL (rat [9]; [25]) of the same compound?
Answer: > 1600 mg/kg/day

Question: What about the NEL (rat [9]; [25]) of the same compound?
Answer: 800 mg/kg/day

Question: And the NOAEL (rat [9]; [25])?
Answer: ≥ 1600 mg/kg/day
